According to ChEMBL document CHEMBL3046647, “Khayasin and 2S-methylbutanoylproceranolide: Promising candidate insecticides for the control of the coconut leaf beetle, Brontispa longissima” (2011):
Converted amounts (≈) assume the structure as drawn.

Assays:
Assay type in all cases: functional
[1] = system: Brontispa longissima; test: Insecticidal activity against Brontispa longissima fifth-instar larvae fed on compound pre-treated Cocos nucifera L. leaves assessed as insect mortality at 50 ug/ml measured 48 hr after compound treatment; details: in Cocos nucifera
[2] = system: Spodoptera litura; test: Insecticidal activity against Spodoptera litura third-instar larvae fed on compound pre-treated Ricinus communis L. leaves assessed as insect mortality at 0.5 mg/ml measured 12 days after compound treatment; details: in Ricinus communis
[3] = system: Brontispa longissima; test: Insecticidal activity against Brontispa longissima second-instar larvae fed on compound pre-treated Cocos nucifera L. leaves assessed as insect mortality at 50 ug/ml measured 12 hr after compound treatment; details: in Cocos nucifera
[4] = system: Brontispa longissima; test: Insecticidal activity against Brontispa longissima fourth-instar larvae fed on compound pre-treated Cocos nucifera L. leaves assessed as insect mortality at 50 ug/ml measured 24 hr after compound treatment; details: in Cocos nucifera
[5] = system: Brontispa longissima; test: Insecticidal activity against Brontispa longissima second-instar larvae fed on compound pre-treated Cocos nucifera L. leaves assessed as insect mortality at 50 ug/ml measured 72 hr after compound treatment; details: in Cocos nucifera
[6] = system: Brontispa longissima; test: Insecticidal activity against Brontispa longissima fifth-instar larvae fed on compound pre-treated Cocos nucifera L. leaves assessed as insect mortality at 50 ug/ml measured 72 hr after compound treatment; details: in Cocos nucifera
[7] = system: Brontispa longissima; test: Insecticidal activity against Brontispa longissima second-instar larvae fed on compound pre-treated Cocos nucifera L. leaves assessed as insect mortality at 50 ug/ml measured 48 hr after compound treatment; details: in Cocos nucifera
[8] = system: Brontispa longissima; test: Insecticidal activity against Brontispa longissima fourth-instar larvae fed on compound pre-treated Cocos nucifera L. leaves assessed as insect mortality at 50 ug/ml measured 48 hr after compound treatment; details: in Cocos nucifera
[9] = system: Spodoptera litura; test: Antifeedant activity against Spodoptera litura third-instar larvae fed on compound pre-treated castor-oil plant leaves assessed as antifeedant rate at 0.5 mg/ml after 24 hr
[10] = system: Brontispa longissima; test: Insecticidal activity against Brontispa longissima third-instar larvae fed on compound pre-treated Cocos nucifera L. leaves assessed as insect mortality at 50 ug/ml measured 12 hr after compound treatment; details: in Cocos nucifera
[11] = system: Brontispa longissima; test: Insecticidal activity against Brontispa longissima fourth-instar larvae fed on compound pre-treated Cocos nucifera L. leaves assessed as insect mortality at 50 ug/ml measured 12 hr after compound treatment; details: in Cocos nucifera
[12] = system: Brontispa longissima; test: Insecticidal activity against Brontispa longissima fifth-instar larvae fed on compound pre-treated Cocos nucifera L. leaves assessed as insect mortality measured 24 hr after compound treatment; details: in Cocos nucifera
[13] = system: Brontispa longissima; test: Insecticidal activity against Brontispa longissima fifth-instar larvae fed on compound pre-treated Cocos nucifera L. leaves assessed as insect mortality at 50 ug/ml measured 24 hr after compound treatment; details: in Cocos nucifera
[14] = system: Brontispa longissima; test: Insecticidal activity against Brontispa longissima third-instar larvae fed on compound pre-treated Cocos nucifera L. leaves assessed as insect mortality at 50 ug/ml measured 72 hr after compound treatment; details: in Cocos nucifera
[15] = system: Spodoptera litura; test: Antifeedant activity against Spodoptera litura third-instar larvae fed on compound pre-treated castor-oil plant leaves assessed as antifeedant rate at 1 mg/ml after 48 hr
[16] = system: Brontispa longissima; test: Insecticidal activity against Brontispa longissima fourth-instar larvae fed on compound pre-treated Cocos nucifera L. leaves assessed as insect mortality at 50 ug/ml measured 72 hr after compound treatment; details: in Cocos nucifera
[17] = system: Brontispa longissima; test: Insecticidal activity against Brontispa longissima fifth-instar larvae fed on compound pre-treated Cocos nucifera L. leaves assessed as insect mortality at 25 ug/ml measured 24 hr after compound treatment; details: in Cocos nucifera
[18] = system: Brontispa longissima; test: Insecticidal activity against Brontispa longissima third-instar larvae fed on compound pre-treated Cocos nucifera L. leaves assessed as insect mortality at 50 ug/ml measured 24 hr after compound treatment; details: in Cocos nucifera
[19] = system: Spodoptera litura; test: Antifeedant activity against Spodoptera litura third-instar larvae fed on compound pre-treated castor-oil plant leaves assessed as antifeedant rate at 1 mg/ml after 24 hr
[20] = system: Brontispa longissima; test: Insecticidal activity against Brontispa longissima fifth-instar larvae fed on compound pre-treated Cocos nucifera L. leaves assessed as insect mortality at 25 ug/ml measured 12 hr after compound treatment; details: in Cocos nucifera
[21] = system: Brontispa longissima; test: Insecticidal activity against Brontispa longissima second-instar larvae fed on compound pre-treated Cocos nucifera L. leaves assessed as insect mortality at 50 ug/ml measured 24 hr after compound treatment; details: in Cocos nucifera
[22] = system: Brontispa longissima; test: Insecticidal activity against Brontispa longissima fifth-instar larvae fed on compound pre-treated Cocos nucifera L. leaves assessed as insect mortality at 50 ug/ml measured 12 hr after compound treatment; details: in Cocos nucifera
[23] = system: Brontispa longissima; test: Insecticidal activity against Brontispa longissima fifth-instar larvae fed on compound pre-treated Cocos nucifera L. leaves assessed as insect mortality at 25 ug/ml measured 48 hr after compound treatment; details: in Cocos nucifera
[24] = system: Brontispa longissima; test: Insecticidal activity against Brontispa longissima fifth-instar larvae fed on compound pre-treated Cocos nucifera L. leaves assessed as insect mortality at 25 ug/ml measured 72 hr after compound treatment; details: in Cocos nucifera
[25] = system: Brontispa longissima; test: Insecticidal activity against Brontispa longissima third-instar larvae fed on compound pre-treated Cocos nucifera L. leaves assessed as insect mortality at 50 ug/ml measured 48 hr after compound treatment; details: in Cocos nucifera
[26] = system: Spodoptera litura; test: Insecticidal activity against Spodoptera litura third-instar larvae fed on compound pre-treated Ricinus communis L. leaves assessed as insect mortality at 1 mg/ml measured 12 days after compound treatment; details: in Ricinus communis
[27] = system: Brontispa longissima; test: Insecticidal activity against Brontispa longissima fifth-instar larvae fed on compound pre-treated Cocos nucifera L. leaves assessed as insect mortality measured 48 hr after compound treatment; details: in Cocos nucifera
[28] = system: Spodoptera litura; test: Antifeedant activity against Spodoptera litura third-instar larvae fed on compound pre-treated castor-oil plant leaves assessed as antifeedant rate at 0.5 mg/ml after 48 hr
[29] = system: Brontispa longissima; test: Insecticidal activity against Brontispa longissima fifth-instar larvae fed on compound pre-treated Cocos nucifera L. leaves assessed as insect mortality at 10 ug/ml measured 12 hr after compound treatment; details: in Cocos nucifera
[30] = system: Brontispa longissima; test: Insecticidal activity against Brontispa longissima fifth-instar larvae fed on compound pre-treated Cocos nucifera L. leaves assessed as insect mortality at 10 ug/ml measured 48 hr after compound treatment; details: in Cocos nucifera
[31] = system: Brontispa longissima; test: Insecticidal activity against Brontispa longissima fifth-instar larvae fed on compound pre-treated Cocos nucifera L. leaves assessed as insect mortality at 10 ug/ml measured 24 hr after compound treatment; details: in Cocos nucifera
[32] = system: Brontispa longissima; test: Insecticidal activity against Brontispa longissima fifth-instar larvae fed on compound pre-treated Cocos nucifera L. leaves assessed as insect mortality at 10 ug/ml measured 72 hr after compound treatment; details: in Cocos nucifera
[33] = system: Brontispa longissima; test: Insecticidal activity against Brontispa longissima fifth-instar larvae fed on compound pre-treated Cocos nucifera L. leaves assessed as insect mortality at 1 ug/ml measured 48 hr after compound treatment; details: in Cocos nucifera
[34] = system: Brontispa longissima; test: Insecticidal activity against Brontispa longissima fifth-instar larvae fed on compound pre-treated Cocos nucifera L. leaves assessed as insect mortality at 1 ug/ml measured 24 hr after compound treatment; details: in Cocos nucifera
[35] = system: Brontispa longissima; test: Insecticidal activity against Brontispa longissima fifth-instar larvae fed on compound pre-treated Cocos nucifera L. leaves assessed as insect mortality at 1 ug/ml measured 72 hr after compound treatment; details: in Cocos nucifera
[36] = system: Brontispa longissima; test: Insecticidal activity against Brontispa longissima fifth-instar larvae fed on compound pre-treated Cocos nucifera L. leaves assessed as insect mortality at 1 ug/ml measured 12 hr after compound treatment; details: in Cocos nucifera
[37] = system: Brontispa longissima; test: Insecticidal activity against Brontispa longissima fifth-instar larvae fed on compound pre-treated Cocos nucifera L. leaves assessed as insect mortality at 5 ug/ml measured 72 hr after compound treatment; details: in Cocos nucifera
[38] = system: Brontispa longissima; test: Insecticidal activity against Brontispa longissima fifth-instar larvae fed on compound pre-treated Cocos nucifera L. leaves assessed as insect mortality at 5 ug/ml measured 48 hr after compound treatment; details: in Cocos nucifera
[39] = system: Brontispa longissima; test: Insecticidal activity against Brontispa longissima fifth-instar larvae fed on compound pre-treated Cocos nucifera L. leaves assessed as insect mortality at 5 ug/ml measured 12 hr after compound treatment; details: in Cocos nucifera
[40] = system: Brontispa longissima; test: Insecticidal activity against Brontispa longissima fifth-instar larvae fed on compound pre-treated Cocos nucifera L. leaves assessed as insect mortality at 5 ug/ml measured 24 hr after compound treatment; details: in Cocos nucifera

SMILES	mortality at 50 µg/mL [1] [%]	mortality at 50 µg/mL [3] [%]	mortality at 50 µg/mL [4] [%]	mortality at 50 µg/mL [5] [%]	mortality at 50 µg/mL [6] [%]	mortality at 50 µg/mL [7] [%]	mortality at 50 µg/mL [8] [%]	mortality at 50 µg/mL [10] [%]	mortality at 50 µg/mL [11] [%]	LC50 [12] [µg/mL]	mortality at 50 µg/mL [13] [%]	mortality at 50 µg/mL [14] [%]	Activity [15] [%]	mortality at 50 µg/mL [16] [%]	mortality at 50 µg/mL [18] [%]	Activity [19] [%]	mortality at 50 µg/mL [21] [%]	mortality at 50 µg/mL [22] [%]	mortality at 50 µg/mL [25] [%]	mortality at 1000 µg/mL [26] [%]	further results
CC[C@H](C)C(=O)O[C@@H]1[C@H]2CC3=C4CC(=O)O[C@@H](c5ccoc5)[C@]4(C)CC[C@@H]3[C@@](C)(C2=O)[C@@H](CC(=O)OC)C1(C)C [2'S-METHYLBUTANOYLPROCERANOLIDE]	96.7	3.33	0	23.3	100	16.7	0	3.57	0	10.6 (≈ 19.1 µM)	96.7	14.3	53	0	7.14	48.4	6.67	96.7	7.14	50	mortality at 500 µg/mL [2]: 24.1%; Activity [9]: 33.9%; mortality at 25 µg/mL [17]: 80%; mortality at 25 µg/mL [20]: 76.7%; mortality at 25 µg/mL [23]: 83.3%; mortality at 25 µg/mL [24]: 86.7%; LC50 [27]: 4.03 µg/mL (≈ 7.27 µM); Activity [28]: 41.7%
C/C=C(\C)C(=O)O[C@H]1C[C@@H](OC(C)=O)[C@@]2(C(=O)OC)CO[C@H]3[C@@H](O)[C@@](C)([C@]45O[C@@]4(C)[C@@H]4C[C@H]5O[C@@H]5OC=C[C@@]54O)[C@H]4[C@]1(CO[C@]4(O)C(=O)OC)[C@@H]32 [AZADIRACHTIN A]	10				10						10							3.33			mortality at 10 µg/mL [29]: 20%; mortality at 10 µg/mL [30]: 56.7%; mortality at 10 µg/mL [31]: 46.7%; mortality at 10 µg/mL [32]: 63.3%
CCC(C)C(=O)OC1[C@@H]2CC3=C4CC(=O)O[C@@H](c5ccoc5)[C@]4(C)CCC3[C@@](C)(C2=O)[C@@H](CC(=O)OC)C1(C)C (some centres not stated) [KHAYASIN]	100	100	100	100	100	100	100	100	100	7.28 (≈ 13.1 µM)	100	100	53	100	100	48.4	100	96.7	100	50	mortality at 10 µg/mL [29]: 71.8%; mortality at 500 µg/mL [2]: 24.1%; mortality at 1 µg/mL [33]: 23.3%; mortality at 1 µg/mL [34]: 20%; mortality at 10 µg/mL [30]: 79.3%; mortality at 1 µg/mL [35]: 26.7%; mortality at 10 µg/mL [31]: 79.3%; Activity [9]: 33.9%; mortality at 1 µg/mL [36]: 23.3%; mortality at 10 µg/mL [32]: 86.3%; LC50 [27]: 3.39 µg/mL (≈ 6.11 µM); Activity [28]: 41.7%
C=C(C)[C@H]1Cc2c(ccc3c2O[C@@H]2COc4cc(OC)c(OC)cc4[C@@H]2C3=O)O1 [ROTENONE]	96.7				100					5.32 (≈ 13.5 µM)	86.7							86.7			mortality at 10 µg/mL [29]: 80%; mortality at 5 µg/mL [37]: 76.7%; mortality at 10 µg/mL [30]: 90%; mortality at 10 µg/mL [31]: 90%; mortality at 5 µg/mL [38]: 73.3%; mortality at 5 µg/mL [39]: 60%; mortality at 5 µg/mL [40]: 66.7%; mortality at 10 µg/mL [32]: 90%; LC50 [27]: 1.61 µg/mL (≈ 4.08 µM)
CC(=O)O[C@@H]1C[C@H](O)[C@@]23CO[C@@H](O)[C@]1(C)[C@@H]2C[C@@H](O)[C@]1(C)[C@@H]3C(=O)[C@H](OC(C)=O)[C@@]2(C)[C@H](c3ccoc3)C[C@H]3O[C@]321 [TOOSENDANIN]		96.7	60	100		100	66.7	53.3	53.3			83.3	90.6	73.3	63.3	87.1	100		73.3	100	
